# Assay results reported in patent EP1202959B1, “AMINOBENZOPHENONES AS INHIBITORS OF IL-1-BETA AND TNF-ALPHA” (LEO PHARMA A/S, priority 1999, dated 2001).
# Key:
# Type in all cases: cell-based
# IL-1β = assay: Inhibition of IL-1β secretion in LPS stimulated peripheral blood mononuclear cells (ELISA); details: PBMC; LPS stimulated human peripheral blood mononuclear cells; compounds added 30 minutes before LPS; incubated 18 hours; read-out: The median inhibition concentration (IC50, nM) of IL-1β
# Protocol: (§1) To study the effect of the compound of the present invention in vitro the inhibition of the IL-1β and TNF-α secretion was measured using the following procedure:
# (§2) Cytokine production was measured in the media from lipopolysaccharide (LPS) stimulated peripheral blood mononuclear cells. The mononuclear cells were isolated from human peripheral blood by Lymphoprep® (Nycomed, Norway) fractionation and suspended in RPMI 1640 (growth medium) with foetal calv serum (FCS, 2%), at a concentration of 5 x 10^5 cells/ml. The cells were incubated in 24-well tissue culture plates in 1 ml aliquots. Test compounds were dissolved in dimethylsulfoxide (DMSO, 10 mM) and were diluted with the medium. Compounds were added to the cells for 30 minutes, then LPS ([…] final concentration) was added. The plates were incubated for 18 hours, and the concentration of IL-1β and TNF-α in the medium was determined by enzyme-linked immunosorbent assays. The median inhibitory concentrations (IC50) of the compounds were calculated.
# TNF-α = assay: Inhibition of TNF-α secretion in LPS stimulated peripheral blood mononuclear cells (ELISA); details: PBMC; LPS stimulated human peripheral blood mononuclear cells; compounds added 30 minutes before LPS; incubated 18 hours; read-out: The median inhibition concentration (IC50, nM) of TNF-α
# Protocol: as §1, §2
# [1] = system: Human polymorphonuclear (PMN) granulocytes; assay: Inhibition of PMN superoxide secretion (superoxide dismutase inhibitable reduction of ferricytochrome C); details: human PMN granulocytes primed with TNF-α (3 ng/ml), stimulated with fMLP (10^-7 M); read-out: The median inhibition concentration (IC50, nM) of PMN-superoxide
# Protocol: The compounds of the present invention also show similar activities in the ability to inhibit PMN (polymorphonuclear) superoxide secretion which is also indicative of potentially useful anti-inflammatory drugs. The compounds were tested using the following procedure: Human polymorphonuclear (PMN) granulocytes were isolated from human blood by dextran sedimentation, Lymphoprep® fractionation and hypotonic lysis of contaminating erythrocytes. Superoxide anion generation was measured as the superoxide dismutase inhibitable reduction of ferricytochrome C (Madhu, S.B. et al, Inflammation, 16, 241, (1992)). The cells were suspended in Hanks' balanced salt solution, and incubated for 10 minutes at 37°C with test compounds. The cells were primed by the addition of TNF-α (3 ng/ml final concentration) for 10 minutes, and then ferricytochrome C, (final concentration 750µg/ml), bovine serum albumin (BSA, final concentration 1 mg/ml) and formyl-methionyl-leucyl-phenylalanine (fMLP, final concentration 10^-7 M) were added for 3 minutes. The cells were chilled on ice, and were spun down. The optical densities in the cell-free supernatant was measured in a spectrophotometer. The median inhibitory concentration (IC50) of the compounds was calculated.
Compound,IC50 (IL-1β) [nM],IC50 (TNF-α) [nM],IC50 [1] [nM]
"Cc1ccccc1C(=O)c1ccc(Nc2ccccc2NC(=O)Oc2ccccc2)cc1Cl [Compound 105, Phenyl N-[2-[3-chloro-4-(2-methylbenzoyl)-phenylamino]phenyl]carbamate]",50,10,100
"CC(=O)OCOC(=O)Nc1ccccc1Nc1ccc(C(=O)c2ccccc2C)c(Cl)c1 [Compound 109, 1-Acetoxymethyl N-[2-[3-chloro-4-(2-methylbenzoyl)-phenylamino]phenyl]carbamate]",32,6.3,40
"Cc1ccccc1C(=O)c1ccc(Nc2ccccc2N)cc1Cl [ref. a), 4-(2-Aminophenylamino)-2-chloro-2'-methylbenzophenone]",13,7.1,5
"CCOC(=O)Nc1ccccc1Nc1ccc(C(=O)c2ccccc2C)c(Cl)c1 [ref. b), Ethyl N-[2-[3-chloro-4-(2-methylbenzoyl)-phenylamino]phenyl]carbamate]",32,5,5
